In US20240148821A1, “PHARMACEUTICAL USE OF CYCLIC PEPTIDE COMPOUND” (CHUGAI SEIYAKU KABUSHIKI KAISHA, priority 2021, published 2024):
Numbered stars: 1 amine (or outer) side, 2 acyl side, 3 side chain; on linkers, the order of the positions; unused ones are H or OH. Bridge positions count the residues as written; N and C are the ends. Square brackets hold non-standard residues; d marks the D form. Peptide text beside a SMILES is read from it. * marks the point of attachment. hPhe(3-Cl-4-CF3) = N[C@@H](CCc1ccc(C(F)(F)F)c(Cl)c1)C(=O)O; NMePhe(4-Cl) = CN[C@@H](Cc1ccc(Cl)cc1)C(=O)O; NMePhe(2-CN) = CN[C@@H](Cc1ccccc1C#N)C(=O)O; NMedβ3hAla = C[C@H](CC(=O)[*:2])N(C)[*:1]; NMeNva(5,5-F2) = CN[C@@H](CCC(F)F)C(=O)O; Phe(4-F) = N[C@@H](Cc1ccc(F)cc1)C(=O)O; NMeCha = CN[C@@H](CC1CCCCC1)C(=O)O; NMehLeu = CN[C@@H](CCC(C)C)C(=O)O; NMeChg = CN[C@H](C(=O)O)C1CCCCC1; NMeT = CN[C@H](C(=O)O)[C@@H](C)O; NMeE = CN[C@@H](CCC(=O)O)C(=O)O; NMeD = CN[C@@H](CC(=O)O)C(=O)O; NMeL = CN[C@@H](CC(C)C)C(=O)O; d(β3hP) = O=C(O)C[C@H]1CCCN1; NMeV = CN[C@H](C(=O)O)C(C)C; d(β3hA) = C[C@@H](N)CC(=O)O; NMeAib = CNC(C)(C)C(=O)O; Nle = CCCC[C@H](N)C(=O)O; Piperidide = C1CCN(*)CC1; Ac5c = NC1(C(=O)O)CCCC1; Aze = O=C(O)[C@@H]1CCN1; NBuGly = CCCCNCC(=O)O; Sar = CNCC(=O)O

Test system: Human pancreatic cancer cell line AsPC-1 (G12D mutation Kras)
Test: AsPC-1 cell growth inhibition (AsPC-1 CGI)
Format: cell-based
Details: read-out: AsPC-1 cell growth inhibition, 50% growth inhibitory concentration (IC50 value); 96 hours, CellTiter-Glo, values classified in ranges
Description: Test compounds were serially dilated with dimethyl sulfoxide, and 200 nL was then dispensed to a U-bottom 96-well plate using Labcyte Echo. […] The cell suspension was dispensed to a. plate containing a test compound at 100 μL per well and incubated at 37° C. in a 5% carbon dioxide gas incubator. 96 hours later, 80 μL of CellTiter-Glo (Promega) was added to each well and fluorescence was measured.

| SMILES | IC50 [nM] |
| --- | --- |
| CCCCN1CC(=O)N(C)[C@@H](CC2CCCCC2)C(=O)N(C)CC(=O)N[C@@H](CCc2ccc(C(F)(F)F)c(Cl)c2)C(=O)N2CCC[C@H]2C(=O)NC2(CCCC2)C(=O)N(C)[C@@H](C(C)C)C(=O)N[C@H](C)CC(=O)N(C)[C@@H](CC(C)C)C(=O)N[C@@H]([C@@H](C)CC)C(=O)N(C)CC1=O [Compound 1033] (cyclo([Ac5c][NMeV][d(β3hA)][NMeL]I[Sar][NBuGly][NMeCha][Sar][hPhe(3-Cl-4-CF3)]P)) | > 500 |
| CC[C@H](C)[C@@H]1NC(=O)[C@H](CC(C)C)N(C)C(=O)C[C@@H](C)N(C)C(=O)[C@H](C(C)C)N(C)C(=O)C2(CCCC2)NC(=O)[C@@H]2CCCN2C(=O)[C@H](CCc2ccc(C(F)(F)F)c(Cl)c2)NC(=O)CN(C)C(=O)[C@H](Cc2ccccc2C#N)N(C)C(=O)CN(C)C(=O)CN(C)C1=O [Compound 357] (cyclo([Ac5c][NMeV][NMedβ3hAla][NMeL]I[Sar][Sar][NMePhe(2-CN)][Sar][hPhe(3-Cl-4-CF3)]P)) | > 500 |
| CC[C@H](C)[C@@H]1NC(=O)[C@H](CC(C)C)N(C)C(=O)C[C@@H](C(=O)N2CCCCC2)N(C)C(=O)[C@H](C(C)C)N(C)C(=O)C2(CCCC2)NC(=O)[C@@H]2CCCN2C(=O)[C@H](CCc2ccc(C(F)(F)F)c(Cl)c2)NC(=O)CN(C)C(=O)[C@H](CC2CCCCC2)N(C)C(=O)[C@@H]2CCN2C(=O)[C@H](CCC(=O)NC)N(C)C1=O [Compound 180] ([NMeL]I[NMeE](NHMe)[Aze][NMeCha][Sar][hPhe(3-Cl-4-CF3)]P[Ac5c][NMeV][NMeD]-Piperidide; lactam N-11) | > 500 |
| CC[C@H](C)[C@@H]1NC(=O)[C@H](CC(C)C)N(C)C(=O)C[C@@H](C)N(C)C(=O)[C@H](CCC(C)C)N(C)C(=O)C2(CCCC2)NC(=O)[C@@H]2CCCN2C(=O)[C@H](CCc2ccc(C(F)(F)F)c(Cl)c2)NC(=O)CN(C)C(=O)[C@H](CC2CCCCC2)N(C)C(=O)CN(C)C(=O)CN(C)C1=O [Compound 22] (cyclo([Ac5c][NMehLeu][NMedβ3hAla][NMeL]I[Sar][Sar][NMeCha][Sar][hPhe(3-Cl-4-CF3)]P)) | > 500 |
| CC[C@H](C)[C@@H]1NC(=O)[C@H](CC(C)C)N(C)C(=O)C[C@@H](C(=O)N2CCCCC2)N(C)C(=O)[C@H]([C@@H](C)O)N(C)C(=O)C2(CCCC2)NC(=O)[C@@H]2CCCN2C(=O)[C@H](CCc2ccc(C(F)(F)F)c(Cl)c2)NC(=O)CN(C)C(=O)[C@H](CC2CCCCC2)N(C)C(=O)CN(C)C(=O)CN(C)C1=O [Compound 1041] ([NMeL]I[Sar][Sar][NMeCha][Sar][hPhe(3-Cl-4-CF3)]P[Ac5c][NMeT][NMeD]-Piperidide; lactam N-11) | > 500 |
| CCCC[C@@H]1NC(=O)[C@H](Cc2ccc(F)cc2)NC(=O)CN(C)C(=O)[C@H](Cc2ccc(Cl)cc2)N(C)C(=O)CN(C)C(=O)CN(C)C(=O)[C@H]([C@@H](C)CC)NC(=O)[C@H](CC(C)C)N(C)C(=O)C[C@@H](C(=O)N2CCCCC2)N(C)C(=O)[C@H](CC(C)C)NC(=O)C(C)(C)N(C)C1=O [Compound 1305] ([NMeL]I[Sar][Sar][NMePhe(4-Cl)][Sar][Phe(4-F)][Nle][NMeAib]L[NMeD]-Piperidide; lactam N-11) | > 500 |
| CC[C@H](C)[C@@H]1NC(=O)[C@H](CC(C)C)N(C)C(=O)C[C@H]2CCCN2C(=O)[C@H](C2CCCCC2)N(C)C(=O)C2(CCCC2)NC(=O)[C@@H]2CCCN2C(=O)[C@H](CCc2ccc(C(F)(F)F)c(Cl)c2)NC(=O)CN(C)C(=O)[C@H](CC2CCCCC2)N(C)C(=O)CN(C)C(=O)CN(C)C1=O [Compound 1185] (cyclo([Ac5c][NMeChg][d(β3hP)][NMeL]I[Sar][Sar][NMeCha][Sar][hPhe(3-Cl-4-CF3)]P)) | > 500 |
| CC[C@H](C)[C@@H]1NC(=O)[C@H](CC(C)C)N(C)C(=O)C[C@@H](C(=O)N2CCCCC2)N(C)C(=O)[C@H](C2CCCCC2)N(C)C(=O)C2(CCCC2)NC(=O)[C@@H]2CCCN2C(=O)[C@H](CCc2ccc(C(F)(F)F)c(Cl)c2)NC(=O)CN(C)C(=O)[C@H](CCC(F)F)N(C)C(=O)CN(C)C(=O)CN(C)C1=O [Compound 1647] ([NMeL]I[Sar][Sar][NMeNva(5,5-F2)][Sar][hPhe(3-Cl-4-CF3)]P[Ac5c][NMeChg][NMeD]-Piperidide; lactam N-11) | > 500 |
